Earlier results on one compound are cited in patent publication US7354574B2, “Treatment of ocular disease” (Advanced Ocular Systems Limited, priority 2002, dated 2008).

The conditions of this series: administered systemically.

Regarding `C=CC[C@@H]1/C=C(\C)C[C@H](C)C[C@H](OC)[C@H]2O[C@@](O)(C(=O)C(=O)N3CCCC[C@H]3C(=O)O[C@H](/C(C)=C/[C@@H]3CC[C@@H](O)[C@H](OC)C3)[C@H](C)[C@@H](O)CC1=O)[C@H](C)C[C@@H]2OC` [tacrolimus], the “Renal and hepatic toxicity” value was “significant renal and hepatic toxicity”.
